Measurements taken from PubChem BioAssay AID194 (DTP/NCI, 2004).
Several values for one entry are separate records, joined by “and”; a condition that tells them apart may be missing. Equal values may be shown once. Inconclusive results are not listed.

Test system: BDF1 mice, B16 melanoma s.c., survival/tumor T/C
Experiment: NCI In Vivo Anticancer Drug Screen. Data for tumor model B16 Melanoma (subcutaneous) in B6D2F1 (BDF1) mice
Protocol: The antitumor activity of compounds was measured in mice bearing transplantable tumors. Survival or tumor size were measured and the results are expressed as the measurement made in the treated group (T) divided by the measurement made in the vehicle treated control group (C). The tumor model used in this assay is B16 Melanoma (subcutaneous) in B6D2F1 (BDF1) mice

[1] = endpoint: median survival time, dose: 0.12 mg/kg/injection, schedule: Q01DX009 (ip), vehicle: saline, higher = longer survival
[2] = endpoint: median survival time, dose: 100.0 mg/kg/injection, schedule: Q01DX009 (ip), vehicle: Klucel (hydroxypropylcellulose) (HPC), higher = longer survival
[3] = endpoint: median survival time, dose: 40.0 mg/kg/injection, schedule: Q01DX009 (ip), vehicle: Klucel (hydroxypropylcellulose) (HPC), higher = longer survival

COc1cccc2c1C(=O)c1c(O)c3c(c(O)c1C2=O)C[C@@](O)(C(C)=O)C[C@@H]3OC1CC(N)C(O)C(C)O1 (stereo partly specified)
T/C [1]: 87 % of control and 105 % of control | T/C (endpoint: median tumor weight (est.), dose: 0.12 mg/kg/injection, schedule: Q01DX009 (ip), vehicle: saline, higher = larger tumour): 64 % of control | T/C (endpoint: median tumor weight (est.), dose: 0.25 mg/kg/injection, schedule: Q01DX009 (ip), vehicle: saline, higher = larger tumour): 86 % of control and 100 % of control | T/C (endpoint: median tumor weight (est.), dose: 0.5 mg/kg/injection, schedule: Q01DX009 (ip), vehicle: saline, higher = larger tumour): 55 % of control

O=c1cnn(C2OC(CO)C(O)C2O)c(=O)[nH]1 (stereo unspecified)
T/C (endpoint: median survival time, dose: 75.0 mg/kg/injection, schedule: Q01DX009 (ip), vehicle: saline, higher = longer survival): 117 % of control | T/C (endpoint: median survival time, dose: 150.0 mg/kg/injection, schedule: Q01DX009 (ip), vehicle: saline, higher = longer survival): 104 % of control | T/C (endpoint: median survival time, dose: 300.0 mg/kg/injection, schedule: Q01DX009 (ip), vehicle: saline, higher = longer survival): 90 % of control | T/C (endpoint: median survival time, dose: 600.0 mg/kg/injection, schedule: Q01DX009 (ip), vehicle: saline, higher = longer survival): 101 % of control

Nc1ccc(N=Nc2ccccc2)c(N)c1
T/C (endpoint: median survival time, dose: 50.0 mg/kg/injection, schedule: Q01DX009 (ip), vehicle: Klucel (hydroxypropylcellulose) (HPC), higher = longer survival): 91 % of control | T/C [2]: 106 % of control

FC(F)(F)c1nc2nc(Cl)c(Cl)nc2[nH]1
T/C (endpoint: median survival time, dose: 4.0 mg/kg/injection, schedule: Q01DX009 (ip), vehicle: saline, higher = longer survival): 109 % of control | T/C (endpoint: median survival time, dose: 8.0 mg/kg/injection, schedule: Q01DX009 (ip), vehicle: saline, higher = longer survival): 105 % of control | T/C (endpoint: median survival time, dose: 16.0 mg/kg/injection, schedule: Q01DX009 (ip), vehicle: saline, higher = longer survival): 118 % of control

O=C1OC(C(O)CO)C(O)=C1O (stereo unspecified)
T/C (endpoint: median survival time, dose: 50.0 mg/kg/injection, schedule: Q01DX009 (ip), vehicle: saline, higher = longer survival): 106 % of control | T/C (endpoint: median survival time, dose: 100.0 mg/kg/injection, schedule: Q01DX009 (ip), vehicle: saline, higher = longer survival): 103 % of control | T/C (endpoint: median survival time, dose: 200.0 mg/kg/injection, schedule: Q01DX009 (ip), vehicle: saline, higher = longer survival): 103 % of control | T/C (endpoint: median survival time, dose: 400.0 mg/kg/injection, schedule: Q01DX009 (ip), vehicle: saline, higher = longer survival): 109 % of control | T/C (endpoint: median survival time, dose: 800.0 mg/kg/injection, schedule: Q01DX009 (ip), vehicle: saline, higher = longer survival): 109 % of control

Cn1ncc2c(N)ncnc21
T/C (endpoint: median survival time, dose: 2.0 mg/kg/injection, schedule: Q01DX009 (ip), vehicle: Klucel (hydroxypropylcellulose) (HPC), higher = longer survival): 104 % of control | T/C (endpoint: median survival time, dose: 4.0 mg/kg/injection, schedule: Q01DX009 (ip), vehicle: Klucel (hydroxypropylcellulose) (HPC), higher = longer survival): 106 % of control | T/C (endpoint: median survival time, dose: 8.0 mg/kg/injection, schedule: Q01DX009 (ip), vehicle: Klucel (hydroxypropylcellulose) (HPC), higher = longer survival): 115 % of control

NC(C/[N+]([O-])=N/O)C(=O)O (stereo unspecified)
T/C (endpoint: median survival time, dose: 8.75 mg/kg/injection, schedule: Q01DX010 (ip), vehicle: alkali diluted with saline, higher = longer survival): 96 % of control | T/C (endpoint: median survival time, dose: 8.78 mg/kg/injection, schedule: Q01DX010 (ip), vehicle: alkali diluted with saline, higher = longer survival): 100 % of control | T/C (endpoint: median survival time, dose: 13.2 mg/kg/injection, schedule: Q01DX010 (ip), vehicle: alkali diluted with saline, higher = longer survival): 152 % of control and 154 % of control | T/C (endpoint: median survival time, dose: 29.6 mg/kg/injection, schedule: Q01DX010 (ip), vehicle: alkali diluted with saline, higher = longer survival): 93 % of control and 96 % of control | T/C [3]: 103 % of control | T/C (endpoint: median survival time, dose: 44.4 mg/kg/injection, schedule: Q01DX010 (ip), vehicle: alkali diluted with saline, higher = longer survival): 104 % of control | T/C (endpoint: median survival time, dose: 66.7 mg/kg/injection, schedule: Q01DX010 (ip), vehicle: alkali diluted with saline, higher = longer survival): 122 % of control | T/C (endpoint: median survival time, dose: 300.0 mg/kg/injection, schedule: Q01DX001 (ip), vehicle: Klucel (hydroxypropylcellulose) (HPC), higher = longer survival): 87 % of control | T/C (endpoint: median survival time, dose: 300.0 mg/kg/injection, schedule: Q04DX003 (ip), vehicle: Klucel (hydroxypropylcellulose) (HPC), higher = longer survival): 93 % of control | T/C (endpoint: median survival time, dose: 500.0 mg/kg/injection, schedule: Q01DX001 (ip), vehicle: Klucel (hydroxypropylcellulose) (HPC), higher = longer survival): 97 % of control

O=NN(CCF)C(=O)NC1C(O)CCCC1O (stereo unspecified)
T/C (endpoint: median survival time, dose: 3.11 mg/kg/injection, schedule: Q01DX007 (ip), vehicle: water, higher = longer survival): 98 % of control | T/C (endpoint: median survival time, dose: 5.18 mg/kg/injection, schedule: Q01DX007 (ip), vehicle: water, higher = longer survival): 103 % of control | T/C (endpoint: median survival time, dose: 8.64 mg/kg/injection, schedule: Q01DX007 (ip), vehicle: water, higher = longer survival): 112 % of control | T/C (endpoint: median survival time, dose: 14.4 mg/kg/injection, schedule: Q01DX007 (ip), vehicle: water, higher = longer survival): 123 % of control

C1CN1c1nc(N2CC2)nc(N2CC2)n1
T/C [1]: 106 % of control | T/C (endpoint: median survival time, dose: 0.5 mg/kg/injection, schedule: Q01DX009 (ip), vehicle: saline with Tween-80, higher = longer survival): 110 % of control | T/C (endpoint: median survival time, dose: 0.5 mg/kg/injection, schedule: Q08DX002 (ip), vehicle: saline with Tween-80, higher = longer survival): 104 % of control | T/C (endpoint: median survival time, dose: 1.0 mg/kg/injection, schedule: Q01DX009 (ip), vehicle: saline with Tween-80, higher = longer survival): 93 % of control | T/C (endpoint: median survival time, dose: 2.0 mg/kg/injection, schedule: Q08DX002 (ip), vehicle: saline with Tween-80, higher = longer survival): 179 % of control | T/C (endpoint: median survival time, dose: 4.0 mg/kg/injection, schedule: Q08DX002 (ip), vehicle: saline with Tween-80, higher = longer survival): 87 % of control | T/C (endpoint: median tumor weight (est.), dose: 0.12 mg/kg/injection, schedule: Q01DX009 (ip), vehicle: saline with Tween-80, higher = larger tumour): 154 % of control | T/C (endpoint: median tumor weight (est.), dose: 0.25 mg/kg/injection, schedule: Q01DX009 (ip), vehicle: saline with Tween-80, higher = larger tumour): 95 % of control | T/C (endpoint: median tumor weight (est.), dose: 0.5 mg/kg/injection, schedule: Q01DX009 (ip), vehicle: saline with Tween-80, higher = larger tumour): 83 % of control | T/C (endpoint: median tumor weight (est.), dose: 0.5 mg/kg/injection, schedule: Q08DX002 (ip), vehicle: saline with Tween-80, higher = larger tumour): 268 % of control | T/C (endpoint: median tumor weight (est.), dose: 1.0 mg/kg/injection, schedule: Q01DX009 (ip), vehicle: saline, higher = larger tumour): 34 % of control | T/C (endpoint: median tumor weight (est.), dose: 1.0 mg/kg/injection, schedule: Q08DX002 (ip), vehicle: saline with Tween-80, higher = larger tumour): 104 % of control | T/C (endpoint: median tumor weight (est.), dose: 2.0 mg/kg/injection, schedule: Q08DX002 (ip), vehicle: saline with Tween-80, higher = larger tumour): 81 % of control | T/C (endpoint: median tumor weight (est.), dose: 4.0 mg/kg/injection, schedule: Q08DX002 (ip), vehicle: saline with Tween-80, higher = larger tumour): 19 % of control | T/C (endpoint: median tumor weight (est.), dose: 4.0 mg/kg/injection, schedule: Q08DX002 (ip), vehicle: saline, higher = larger tumour): 86 % of control

CC(=O)O[C@]1(C(C)=O)CC[C@H]2[C@@H]3C[C@H](C)C4=CC(=O)CC[C@]4(C)[C@H]3CC[C@@]21C
T/C [2]: 111 % of control and 112 % of control | T/C (endpoint: median survival time, dose: 200.0 mg/kg/injection, schedule: Q01DX009 (ip), vehicle: Klucel (hydroxypropylcellulose) (HPC), higher = longer survival): 86 % of control and 102 % of control | T/C (endpoint: median survival time, dose: 400.0 mg/kg/injection, schedule: Q01DX009 (ip), vehicle: Klucel (hydroxypropylcellulose) (HPC), higher = longer survival): 96 % of control and 102 % of control | T/C (endpoint: median survival time, dose: 800.0 mg/kg/injection, schedule: Q01DX009 (ip), vehicle: Klucel (hydroxypropylcellulose) (HPC), higher = longer survival): 104 % of control and 111 % of control

CCOC(=O)CNC(=O)CCCCSc1ncnc2nc[nH]c12
T/C (endpoint: median survival time, dose: 20.0 mg/kg/injection, schedule: Q01DX009 (ip), vehicle: Klucel (hydroxypropylcellulose) (HPC), higher = longer survival): 121 % of control | T/C [3]: 111 % of control | T/C (endpoint: median survival time, dose: 80.0 mg/kg/injection, schedule: Q01DX009 (ip), vehicle: Klucel (hydroxypropylcellulose) (HPC), higher = longer survival): 119 % of control | T/C (endpoint: median survival time, dose: 160.0 mg/kg/injection, schedule: Q01DX009 (ip), vehicle: Klucel (hydroxypropylcellulose) (HPC), higher = longer survival): 115 % of control | T/C (endpoint: median survival time, dose: 320.0 mg/kg/injection, schedule: Q01DX009 (ip), vehicle: Klucel (hydroxypropylcellulose) (HPC), higher = longer survival): 118 % of control | T/C (endpoint: median survival time, dose: 640.0 mg/kg/injection, schedule: Q01DX009 (ip), vehicle: Klucel (hydroxypropylcellulose) (HPC), higher = longer survival): 122 % of control

C1CCC2[N-]CC3CCCCC3[N-]CC3CCCCC3[N-]CC3CCCCC3[N-]CC2C1.[Cu] (stereo unspecified)
T/C (endpoint: median survival time, dose: 5.12 mg/kg/injection, schedule: Q01DX005 (ip), vehicle: Klucel (hydroxypropylcellulose) (HPC), higher = longer survival): 98 % of control | T/C (endpoint: median survival time, dose: 6.4 mg/kg/injection, schedule: Q01DX005 (ip), vehicle: Klucel (hydroxypropylcellulose) (HPC), higher = longer survival): 95 % of control and 96 % of control and 102 % of control | T/C (endpoint: median survival time, dose: 8.0 mg/kg/injection, schedule: Q01DX001 (ip), vehicle: Klucel (hydroxypropylcellulose) (HPC), higher = longer survival): 93 % of control and 95 % of control and 106 % of control | T/C (endpoint: median survival time, dose: 8.0 mg/kg/injection, schedule: Q01DX005 (ip), vehicle: Klucel (hydroxypropylcellulose) (HPC), higher = longer survival): 96 % of control and 97 % of control and 98 % of control | T/C (endpoint: median survival time, dose: 10.0 mg/kg/injection, schedule: Q01DX001 (ip), vehicle: Klucel (hydroxypropylcellulose) (HPC), higher = longer survival): 95 % of control and 107 % of control and 109 % of control | T/C (endpoint: median survival time, dose: 12.5 mg/kg/injection, schedule: Q01DX001 (ip), vehicle: Klucel (hydroxypropylcellulose) (HPC), higher = longer survival): 93 % of control and 94 % of control and 119 % of control
